Values of other authors as cited in patent US8178105B2, “Composition containing Agaricus blazei Murill” (Kyowa Hakko Bio Co., Ltd., priority 2006, dated 2012).

Tested on: Sarcoma-180
Conditions: oral administration; Sarcoma-180 transplanted mouse; non-patent document 5

For N=C(N)NCCC[C@H](N)C(=O)O [arginine], the “antitumor effect and life extension (in words)” value is given as “marked antitumor effect and life extension”.
